According to patent US12303509B2, “Compounds for the treatment of BRAF-associated diseases and disorders” (Pfizer Inc., priority 2020, dated 2025):
Structures can show the parent of a compound that is named as a salt. Where two headings read alike, the source gives them in different places.

Experiments:
[1] = target: full-length FLAG-tagged B-Raf(V600E) (Homo sapiens (Human), UniProt P15056, V600E); assay: BRAF V600E enzyme assay (TR-FRET competitive displacement); format: binding
Summary of the method: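 TR-FRET tracer competition: compound (top dose 10 μM, 3-fold, 11 points) incubated 60 min at ambient temperature with FLAG-tagged full-length B-Raf(V600E) (5 nM), Eu anti-FLAG cryptate (0.5 nM) and tracer (50 nM), pH 7.4 HEPES/MgCl2 buffer. 665/615 ratio converted to percent of control; IC50 where fitted curve crosses 50 POC.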

[2] = test system: A375 cells; assay: Cellular phospho-ERK inhibition assay in A375 cells; format: cell-based; settings: Homo sapiens, A-375, A375 cells (head prints A357), 2 hours treatment, read-out: A357 cell IC50
Summary of the method: (§1)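 In Cell Western detection of phospho-ERK1/2 (Thr202/Tyr204) over GAPDH after 2 h compound exposure (66 pM to 10 μM, 9 points, 0.25% DMSO) of A375 cells in DMEM or H1755 cells in RPMI, both with 10% FBS. Percent of control set by DMSO and 10 μM binimetinib; 4-parameter IC50.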

[3] = test system: H1755 cells; assay: Cellular phospho-ERK inhibition assay in H1755 cells; format: cell-based; settings: Homo sapiens, NCI-H1755, 2 hours treatment, read-out: H1755 Cell IC50
Summary of the method: as §1

[4] = MDR1 LLC-PK1 and BCRP MDCKII permeability assay: permeability coefficient (Papp); format: in vitro ADME
Description: (§2) Final organic concentration in the assay was 1%.

[5] = target: P-gp (MDR1) (Homo sapiens (Human), UniProt P08183); assay: MDR1 LLC-PK1 permeability assay: efflux ratio; format: in vitro ADME; settings: pig
Chain of P-gp (MDR1) (P08183 whole entry, species assumed): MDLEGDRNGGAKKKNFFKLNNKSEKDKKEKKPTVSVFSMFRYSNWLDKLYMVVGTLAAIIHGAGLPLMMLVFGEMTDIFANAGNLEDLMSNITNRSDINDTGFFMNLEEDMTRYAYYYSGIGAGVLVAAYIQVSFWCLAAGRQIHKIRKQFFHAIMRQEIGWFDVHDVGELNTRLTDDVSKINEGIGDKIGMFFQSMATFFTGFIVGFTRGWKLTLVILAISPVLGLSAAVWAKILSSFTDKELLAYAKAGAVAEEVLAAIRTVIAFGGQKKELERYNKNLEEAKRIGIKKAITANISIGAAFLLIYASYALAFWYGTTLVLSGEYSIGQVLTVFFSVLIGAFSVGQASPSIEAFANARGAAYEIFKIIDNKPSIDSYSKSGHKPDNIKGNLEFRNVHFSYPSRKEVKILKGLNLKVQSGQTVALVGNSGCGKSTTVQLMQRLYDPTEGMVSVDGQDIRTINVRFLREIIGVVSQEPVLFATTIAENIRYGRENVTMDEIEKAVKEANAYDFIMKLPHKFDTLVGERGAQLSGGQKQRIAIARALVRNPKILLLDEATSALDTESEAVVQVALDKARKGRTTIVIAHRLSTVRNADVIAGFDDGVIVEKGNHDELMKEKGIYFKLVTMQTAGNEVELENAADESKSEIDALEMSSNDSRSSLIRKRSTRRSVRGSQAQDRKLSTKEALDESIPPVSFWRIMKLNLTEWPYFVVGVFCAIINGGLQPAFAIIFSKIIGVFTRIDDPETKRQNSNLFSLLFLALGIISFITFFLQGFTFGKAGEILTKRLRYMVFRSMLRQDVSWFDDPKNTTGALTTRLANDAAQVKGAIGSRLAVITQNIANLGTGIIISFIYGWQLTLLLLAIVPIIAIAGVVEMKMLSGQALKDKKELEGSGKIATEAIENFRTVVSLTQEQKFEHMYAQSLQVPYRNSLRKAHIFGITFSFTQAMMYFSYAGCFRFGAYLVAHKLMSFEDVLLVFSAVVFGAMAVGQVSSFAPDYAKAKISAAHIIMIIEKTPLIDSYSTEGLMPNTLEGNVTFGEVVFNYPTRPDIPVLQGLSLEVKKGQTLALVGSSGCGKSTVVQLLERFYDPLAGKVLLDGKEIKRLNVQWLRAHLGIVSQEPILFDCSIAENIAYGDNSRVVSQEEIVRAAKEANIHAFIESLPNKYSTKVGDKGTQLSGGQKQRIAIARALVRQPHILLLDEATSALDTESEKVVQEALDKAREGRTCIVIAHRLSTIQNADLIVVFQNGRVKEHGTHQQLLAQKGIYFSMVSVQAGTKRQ
Description: as §2

[6] = target: BCRP (Homo sapiens (Human), UniProt Q9UNQ0); assay: BCRP MDCKII permeability assay: efflux ratio; format: in vitro ADME; settings: dog
Chain of BCRP (Homo sapiens (Human), UniProt Q9UNQ0) (Q9UNQ0 whole entry): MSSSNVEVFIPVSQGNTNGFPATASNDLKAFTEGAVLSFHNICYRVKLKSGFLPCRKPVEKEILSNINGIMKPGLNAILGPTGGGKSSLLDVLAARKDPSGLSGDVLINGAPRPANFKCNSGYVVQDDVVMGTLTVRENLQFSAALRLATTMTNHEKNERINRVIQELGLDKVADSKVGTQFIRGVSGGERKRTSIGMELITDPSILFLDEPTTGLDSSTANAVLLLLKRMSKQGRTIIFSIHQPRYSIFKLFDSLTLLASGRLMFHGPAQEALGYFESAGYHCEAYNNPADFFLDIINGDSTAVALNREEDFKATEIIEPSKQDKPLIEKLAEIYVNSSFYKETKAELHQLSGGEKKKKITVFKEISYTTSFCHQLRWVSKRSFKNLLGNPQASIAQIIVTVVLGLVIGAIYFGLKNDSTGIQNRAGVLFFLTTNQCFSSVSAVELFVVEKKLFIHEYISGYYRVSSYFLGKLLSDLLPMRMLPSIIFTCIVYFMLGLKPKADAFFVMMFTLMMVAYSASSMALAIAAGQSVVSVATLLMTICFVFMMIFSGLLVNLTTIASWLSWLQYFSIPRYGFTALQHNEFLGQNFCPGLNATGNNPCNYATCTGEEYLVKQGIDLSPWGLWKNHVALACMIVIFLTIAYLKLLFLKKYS
Method: BCRP transfected MDCKII cells were cultured and plated according to manufacturer's recommendations. Assay conditions included with and without the BCRP-specific inhibitor, KO143, at a concentration of 0.3 μM to ascertain the contribution of BCRP to the efflux value of the test compound.
Both positive and negative controls were used to assess functionality of P-gp or BCRP efflux in the assays. […] Final organic concentration in the assay was 1%. All dosing solutions contained 10 μM lucifer yellow to monitor LLC-PK1 or MDCKII cell monolayer integrity.
For the apical to basolateral determination (A to B), 75 μL of the test article in transport buffer were added to the apical side of the individual transwells and 250 μL of basolateral media, without compound or lucifer yellow, were added to each well. For the basolateral to apical determination (B to A), 250 μL of test article in transport buffer were added to each well and 75 μL transport buffer, without compound or lucifer yellow, were added to each transwell. All tests were performed in triplicate, and each compound was tested for both apical to basolateral and basolateral to apical transport. The plates were incubated for 2 hours on a Lab-Line Instruments Titer Orbital Shaker (VWR, West Chester, PA) at 50 rpm and 37° C. with 5% CO2. All culture plates were removed from the incubator and 50 μL of media were removed from the apical and basolateral portion of each well and added to 150 μL of 1 μM labetalol in 2:1 acetonitrile (acetonitrile): H2O, v/v.
These values were accepted when found to be below 2% for apical to basolateral and 5% basolateral to apical flux across the MDR1-transfected LLC-PK1 or BCRP-transfected MDCKII cell monolayers. The plates were sealed and the contents of each well analyzed by LC-MS/MS. The compound concentrations were determined from the ratio of the peak areas of the compound to the internal standard (labetalol) in comparison to the dosing solution.
The LC-MS/MS system was comprised of an HTS-PAL autosampler (Leap Technologies, Carrboro, NC), an HP1200 HPLC (Agilent, Palo Alto, CA), and a MDS Sciex 4000 Q Trap system (Applied Biosystems, Foster City, CA). […] The total run time, including re-equilibration, for a single injection was 1.2 minutes. Mass spectrometric detection of the analytes was accomplished using the ion spray positive mode.
An efflux ratio is calculated from the mean apical to basolateral (A-B) Papp data and basolateral to apical (B-A) Papp data using the following equation: Efflux ratio=Papp(B-A)/Papp(A-B)

[7] = PK (free brain-to-free plasma ratio) (mouse); format: in vivo; settings: male CD-1 mice, oral gavage 10 mg/kg, unbound brain-to-unbound plasma, read-out: B/P ratio (free)
Method: The ability of representative compounds to penetrate the BBB in mice was determined by evaluating the unbound brain-to-unbound plasma (also referred to as free brain-to-free plasma) concentration ratio in male CD-1 mice.
Brain compound levels were generated from oral mouse PK dosing with typical sampling times of 2, 4, 8, 12 and 24 hours post oral gavage dosing at 10 mg/kg. Brain samples were stored at −20±5° C. prior to analysis. Concentrations of test compound in mouse brain homogenate were determined by liquid chromatography tandem mass spectrometry (LC-MS/MS) following protein precipitation with acetonitrile. A 12-point calibration curve, ranging from 0.5 to 10,000 ng/mL, was prepared in duplicate. A solution of 400 μg/mL of test compound in dimethyl sulfoxide (DMSO) was serially diluted (3-fold) in 100% DMSO, and then 2.5 μL of each standard solution was added to 100 μL of naïve male CD-1 mice brain homogenate. To mimic the extraction in the standard curve, 2.5 μL of DMSO was added to all test samples. Both calibration and test brain homogenate samples were spiked with 10 μL of an IS (1 μg/mL of a structural analog). Brain homogenate was generated by adding 0.75 mL of 4:1 water:MeOH to each brain sample followed by homogenization for 1 minute with bead beater tubes a 6 m/s using an MP Fast Prep-24®. Proteins were precipitated from 100 μL of brain homogenate sample by the addition of 300 μL of acetonitrile. Samples were vortex-mixed for 5 minutes and spun in an Allegra X-12R centrifuge (Beckman Coulter, Fullerton, CA; SX4750A rotor) for 15 min at approximately 1,500×g at 4° C. A 100 μL aliquot of each supernatant was transferred via a 550 μL Personal Pipettor (Apricot Designs, Monrovia, CA) to 96-well plates and diluted 1:1 with HPLC grade water. The resulting plates were sealed with aluminum for LC-MS/MS analysis.
Brain-to-plasma ratios were calculated using the concentration of compound measured in the brain divided by the concentration of compound measured in the plasma. Brain-to-plasma ratios were always generated from a single animal and time point. Free brain-to-free plasma ratios were calculated by multiplying the brain-to-plasma ratio by the in vitro brain homogenate free fraction divided by the in vitro plasma free fraction using the following equation: (B/P)*(Bfu/Pfu). Table C provides the free brain-to-free plasma ratios of compounds disclosed herein.

[8] = test system: NCI-H1666 (BRAF G466V) cells; assay: Cellular phospho-ERK inhibition assay in NCI-H1666 cells; format: cell-based; settings: Homo sapiens, 1 hour treatment, read-out: IC50 NCI-H1666 pERK
Method: (§3) The compounds of Example 13, Example 14 and Example 126 were evaluated in a phospho-ERK assay in two mutant BRAF Class III cell lines: NCI-H1666 (BRAF^G466V) and WM3629 cells (BRAF^D594G/NRAS^G12D). NCI-H1666 cells were obtained from the American Type Culture Collection (ATCC, Rockville, MD) and WM3629 cells were obtained from Rockland Immunochemicals (Limerick, PA). Cells were maintained in RPMI growth medium containing 10% FBS.
(§4) Cells were harvested according to standard protocols, counted, and plated onto flat-bottom, 96-well tissue culture plates (Costar #3599) at 2.5×10^4 cells/well in 100 μL/well of growth medium containing 10% FBS. After an overnight incubation at 37° C. with 5% CO2 cells were treated for 1 hour at 37° C., 5% CO2 with inhibitors prepared as a 9-point, 1:3.33 fold dilution series with final compound concentrations ranging from 66 pM-10 μM and a constant DMSO concentration of 0.25%. Control wells contained either 0.25% DMSO alone (uninhibited control) or 10 μM binimetinib (complete inhibition control). The levels of phosphorylated ERK were determined using an In Cell Western protocol: following compound incubation, growth medium was discarded, and cells were fixed with 0.4% formaldehyde in PBS for 20 minutes at room temperature. Cells were permeabilized with 100% methanol for 10 minutes at room temperature. Plates were washed with PBS containing 0.05% Tween-20 and blocked for 1 hour at room temperature with LI-COR Blocking Buffer (LI-COR Biosciences; Cat. #927-40000). Plates were then incubated for 2 hours at room temperature with 50 μL of a 1:400 dilution of anti-phospho-ERK1/2 (Thr202/Tyr204) (Cell Signaling; Cat. #9101) and a 1:1000 dilution of anti-GAPDH (Millipore; Cat. #MAB374) in LI-COR blocking buffer containing 0.05% Tween-20. […] Plates were analyzed by reading on an Odyssey CLx infrared scanner. […]
(§5) [formula] • Where: • Xmax d Average Uninhibited Controls • Xmin Average Complete Inhibition Controls • IC50 values were then calculated using a 4-parameter fit in XLfit software and are shown in Table A2.

[9] = test system: WM3629 cells (BRAF D594G/NRAS G12D); assay: Cellular phospho-ERK inhibition assay in WM3629 cells; format: cell-based; settings: 1 hour treatment, read-out: IC50 WM3629 pERK
Method: as §3, §4, §5

[10] = test system: NCI-H1666 (BRAF G466V) cells; assay: Proliferation assay (CellTiter-Glo) in NCI-H1666 cells; format: cell-based; settings: Homo sapiens, 3-5 day incubation
Method: as §3, with “proliferation” for “phospho-ERK”
(§6) Cells were harvested according to standard protocols, counted, and plated onto flat-bottom, 96-well tissue culture plates (Costar #3599) at 2000-5000 cells/well in 100 μL/well of growth medium containing 10% FBS. Cells were incubated at 37° C. with 5% CO2 overnight then treated with inhibitors prepared as a 9-point, 1:3.33 fold dilution series with final compound concentrations ranging from 66 pM-10 μM and a constant DMSO concentration of 0.25%. Control wells contained 0.25% DMSO alone. After a 3-5 day incubation at 37° C., 5% CO2, cell viability was determined by adding 100 μL CellTiter-Glo® Reagent (Promega) to each well and incubated for 15 minutes at room temperature. “Day 0” controls were determined by performing CellTiter-Glo© assay on DMSO control wells at the time of compound treatment (“Day 0” control=0 POC). Luminescence was measured on a Cytation 5 plate reader (BioTek) and values were converted to POC using the following equation:
(§7) [formula] • Where: • Xmax Average DMSO Controls • Xmin Average “Day 0” DMSO Controls • IC50 values were calculated using a 4-parameter fit in XLfit software and are shown in Table A2.

[11] = test system: WM3629 cells (BRAF D594G/NRAS G12D); assay: Proliferation assay (CellTiter-Glo) in WM3629 cells; format: cell-based; settings: 3-5 day incubation
Method: as §3, with “proliferation” for “phospho-ERK”
as §6, §7

[12] = test system: BCRP; settings: reported, Mittapalli et al.; cited from earlier work
[13] = averaged IC50, TR-FRET tracer displacement, 60 min

Chain of full-length FLAG-tagged B-Raf(V600E) (P15056 whole entry V600E): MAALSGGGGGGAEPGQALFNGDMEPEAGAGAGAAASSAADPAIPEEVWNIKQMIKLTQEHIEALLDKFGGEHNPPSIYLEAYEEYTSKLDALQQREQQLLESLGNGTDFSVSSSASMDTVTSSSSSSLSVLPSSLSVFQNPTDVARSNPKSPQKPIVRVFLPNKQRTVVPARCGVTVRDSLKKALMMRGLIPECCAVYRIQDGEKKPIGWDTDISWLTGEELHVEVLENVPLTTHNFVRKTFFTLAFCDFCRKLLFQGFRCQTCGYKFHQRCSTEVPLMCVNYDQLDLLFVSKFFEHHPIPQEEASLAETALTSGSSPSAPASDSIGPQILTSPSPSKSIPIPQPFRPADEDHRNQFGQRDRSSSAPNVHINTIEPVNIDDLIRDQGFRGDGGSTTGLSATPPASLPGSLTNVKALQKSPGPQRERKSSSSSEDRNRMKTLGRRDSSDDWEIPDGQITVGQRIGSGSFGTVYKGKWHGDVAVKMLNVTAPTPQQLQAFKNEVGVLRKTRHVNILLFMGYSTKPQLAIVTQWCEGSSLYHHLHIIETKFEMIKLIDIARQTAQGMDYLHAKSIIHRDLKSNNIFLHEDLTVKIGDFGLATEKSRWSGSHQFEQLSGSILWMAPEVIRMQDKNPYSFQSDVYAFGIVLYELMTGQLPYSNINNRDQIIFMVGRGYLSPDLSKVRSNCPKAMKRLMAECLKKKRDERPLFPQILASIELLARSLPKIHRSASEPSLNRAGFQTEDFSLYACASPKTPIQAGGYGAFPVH

| IC50 [1, 13] | IC50 [2] | IC50 [3] | Papp at 2 h, 1 µM [4] | efflux ratio at 2 h, 1 µM [5] | efflux ratio at 2 h, 1 µM [6] | Kp [7] | IC50 [1] | IC50 [8] | IC50 [9] | IC50 [10] | Structure (SMILES) | IC50 [11] | BCRP efflux ratio [12] |
| --- | --- | --- | --- | --- | --- | --- | --- | --- | --- | --- | --- | --- | --- |
| 2 nM | 3 nM | 56 nM | 34 ×10⁻⁶ cm/s | 1.4 | 0.9 | 0.35 to 0.47 | – | – | – | – | Cn1cnc2ccc(Oc3c(F)ccc(NS(=O)(=O)N4CCCC4)c3Cl)c(F)c2c1=O [Example 44, N-(2-chloro-4-fluoro-3-((5-fluoro-3-methyl-4-oxo-3,4-dihydroquinazolin-6-yl)oxy)phenyl)pyrrolidine-1-sulfonamide trifluoroacetate] | – | – |
| 3 nM | 1 nM | 36 nM | 29 ×10⁻⁶ cm/s | 2.2 | 1.7 | 0.29 to 0.33 | – | – | – | – | CO[C@@H]1CCN(S(=O)(=O)Nc2ccc(F)c(Oc3ccc4ncn(C)c(=O)c4c3F)c2Cl)C1 [Example 48, (R)-N-(2-chloro-4-fluoro-3-((5-fluoro-3-methyl-4-oxo-3,4-dihydroquinazolin-6-yl)oxy)phenyl)-3-methoxypyrrolidine-1-sulfonamide trifluoroacetate] | – | – |
| – | 14 nM | 43 nM | 25 ×10⁻⁶ cm/s | 1.8 | 1 | 0.17 to 0.36 | 8 nM | – | – | – | Cc1c(Oc2c(F)ccc(NS(=O)(=O)N3CC[C@@H](F)C3)c2Cl)ccc2ncn(C)c(=O)c12 [Example 70, (R)-N-(2-chloro-3-((3,5-dimethyl-4-oxo-3,4-dihydroquinazolin-6-yl)oxy)-4-fluorophenyl)-3-fluoropyrrolidine-1-sulfonamide] | – | – |
| – | 2 nM | 26 nM | 44 ×10⁻⁶ cm/s | 2.1 | 4.2 | – | – | 15 nM | 1.4 nM | 390 nM | Cn1cnc2ccc(Nc3c(F)ccc(NS(=O)(=O)N4CC(F)C4)c3Cl)c(Cl)c2c1=O [Example 126, N-(2-chloro-3-((5-chloro-3-methyl-4-oxo-3,4-dihydroquinazolin-6-yl)amino)-4-fluorophenyl)-3-fluoroazetidine-1-sulfonamide] | > 10 µM | – |
| 12 nM | 9 nM | 37 nM | 37 ×10⁻⁶ cm/s | 1.6 | 5.3 | 0.18 to 0.22 | – | – | – | – | COC1CN(S(=O)(=O)Nc2ccc(F)c(Nc3ccc4ncn(C)c(=O)c4c3Cl)c2Cl)C1 [Example 129, N-(2-chloro-3-((5-chloro-3-methyl-4-oxo-3,4-dihydroquinazolin-6-yl)amino)-4-fluorophenyl)-3-methoxyazetidine-1-sulfonamide] | – | – |
| 11 nM | 7 nM | 38 nM | 30 ×10⁻⁶ cm/s | 2.3 | 7.6 | 0.12 to 0.16 | – | – | – | – | COC1CN(S(=O)(=O)Nc2ccc(F)c(Nc3ccc4ncn(C)c(=O)c4c3F)c2Cl)C1 [Example 130, N-(2-chloro-4-fluoro-3-((5-fluoro-3-methyl-4-oxo-3,4-dihydroquinazolin-6-yl)amino)phenyl)-3-methoxyazetidine-1-sulfonamide] | – | – |
| 16 nM | 13 nM | 38 nM | 55 ×10⁻⁶ cm/s | 2.1 | 1.7 | 0.3 to 0.5 | – | – | – | – | COCC1CN(S(=O)(=O)Nc2ccc(F)c(Nc3ccc4ncn(C)c(=O)c4c3C)c2Cl)C1 [Example 131, N-(2-chloro-3-((3,5-dimethyl-4-oxo-3,4-dihydroquinazolin-6-yl)amino)-4-fluorophenyl)-3-(methoxymethyl)azetidine-1-sulfonamide] | – | – |
| – | – | – | – | – | – | – | – | – | – | – | CC(C)(C)c1nc(-c2cccc(NS(=O)(=O)c3c(F)cccc3F)c2F)c(-c2ccnc(N)n2)s1 [dabrafenib] | – | 21.0 |
| – | – | – | – | – | – | – | – | – | – | – | CCCS(=O)(=O)Nc1ccc(F)c(C(=O)c2c[nH]c3ncc(-c4ccc(Cl)cc4)cc23)c1F [vemurafenib] | – | 495 |
